Measurements: patent publication US20060069123A1, “Substituted dipiperidine CCR2 antagonists” (priority 2004, published 2006)
Read-outs that look alike come from different tables or passages of the source.

Tests used:
[1] = system: Lewis rats
[2] = system: Lewis rats; test: Adjuvant-Induced Arthritis Model (Therapeutic Dosing from Day 12-16); assay type: in vivo
Source text: Adjuvant-Induced Arthritis Model (Therapeutic Dosing from Day 12-16)

[3] = system: DBA1 mice; settings: 100 mg/kg ip, bid, day 20 to day 35, in either vehicle
Experimental: Collagen-Induced Arthritis Model
In a collagen-induced arthritis model in mice, DBA1 mice were immunized with bovine type II collagen on day 0, injected (sc) with lipopolysaccharide (LPS) on day 21, and dosed (ip, bid) with a test compound at either 25, 50 or 100 mg/kg from day 20 to day 35. Body weight was monitored, and clinical disease score recorded every 2-3 days starting on day 20.
Test compound was dosed in one of two vehicles:
• 1) 10% Pharmasolve:20% PEG-400:70% of a 1% solution of Tween-80 in water; or, • 2) 30% PEG400:20% Solutol:50% of a 0.1 N solution of NaHCO3.

[4] = system: THP-1 cells; test: MCP-1 Induced Chemotaxis in THP-1 Cells; assay type: cell-based; settings: Homo sapiens, read-out: Inhibition of MCP-1 Induced Chemotaxis IC50
[5] = system: THP-1 cells; settings: Homo sapiens; for IC50: THP-1, read-out: Inhibition of MCP-1 Induced Calcium Ion Influx IC50
[6] = system: BALB/c female mice; test: Mouse Model of Allergic Asthma; assay type: in vivo; settings: 100 mg/kg ip
Source text: Mouse Model of Allergic Asthma: An allergic asthma model in mice was used to test compounds of the invention for therapeutic effect on asthmatic response as a function of airway inflammation and hyperresponsiveness ([…], et al., J. Phar. Exp. Ther., 2000, 295: 912-926). Airway hyperresponsiveness in asthmatic patients is a cardinal feature of allergic asthma and is maintained as a result of persistent airway inflammation. Eosinophils are the prominent cells involved in airway inflammation and are found in large numbers in sputum and bronchoalveolar lavage fluids. Airway responsiveness was measured in unrestrained mice by noninvasive whole body plethysmography using a BioSystem plethysmography instrument (BUXCO, Troy, N.Y.). Each animal was individually placed in the plethysmography instrument chamber and chamber pressure was used as a measure of the difference between thoracic volume expansion or contraction and air volume removed or added to the chamber during breathing. The differential of this function with respect to time produced a pseudo flow value that was proportionate to the difference between the rate of the thoracic volume expansion and nasal air flow (Hamelmann, et al., J. Respir. Crit. Care Med., 1997, 156: 766-775). Three treatment groups of BALB/c female mice (6-8 weeks old) were tested in the 32 day study: • Group 1: vehicle control phosphate buffered saline (PBS)-sensitized and PBS-challenged mice; • Group 2: positive control ovalbumin (OVA)-sensitized and OVA-challenged mice; and, • Group 3: OVA-sensitized and OVA-challenged mice treated with Compound 13. […] • Group 1 mice were sensitized by injection (ip) with PBS; and, • Group 2 mice were OVA sensitized by injection (ip) with OVA (20 μg) dissolved in PBS adsorbed on 2.25 mg alum. […] Day 32: The three treatment groups were challenged via airway by means of methacholine inhalation and asthmatic response was measured as a function of airway hyper-responsiveness. A baseline reading over a 5 min period for each of the mice in the three treatment groups was taken in the plethysmography instrument, then the baseline readings were averaged. • Group 1 mice were nebulized with saline at increasing doses (1-30 mg/ml) over a 2 min period. • Group 2 (first subset) and Group 3 mice were nebulized with methacholine at increasing doses (1-30 mg/ml) over a 2 min period. Post-Challenge Phase A 5 min post-challenge reading for each of the mice was taken and the readings were averaged. Reduction in airway hyperresponsiveness was calculated according to the following formula: [formula] Airway inflammation was measured by eosinophil cell count in bronchoalveolar saline lavage samples (1 mL) of the mice from the three groups. […] The number of eosinophils was counted and the cell concentration adjusted to 0.1×10^6/mL.

[7] = molecular target: T1, CCR2 (Homo sapiens, UniProt P41597)
T1 sequence (P41597 1-360 isoform P41597-2): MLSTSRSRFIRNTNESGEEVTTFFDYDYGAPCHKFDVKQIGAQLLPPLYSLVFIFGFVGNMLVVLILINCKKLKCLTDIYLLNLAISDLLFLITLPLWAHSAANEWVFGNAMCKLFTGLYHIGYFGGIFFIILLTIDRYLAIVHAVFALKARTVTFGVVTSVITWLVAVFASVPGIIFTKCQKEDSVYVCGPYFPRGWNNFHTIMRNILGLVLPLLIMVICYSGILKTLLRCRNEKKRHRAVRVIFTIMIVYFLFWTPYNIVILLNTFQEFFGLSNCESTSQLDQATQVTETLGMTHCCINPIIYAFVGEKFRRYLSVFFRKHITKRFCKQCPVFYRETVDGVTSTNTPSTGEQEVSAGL

[8] = OVA-sensitized and OVA-challenged mice
[9] = THP-1 cells, MCP-1 0.01 μg/mL, 3 hours
[10] = orally, once per day, 3 mg/kg, days 10-14 (positive control)
[11] = orally, once per day, 3 mg/kg (positive control), therapeutic study

SMILES	IC50 [5]	IC50 [7]	IC50 [4, 9]	further results
O=C(O)C(C1CCN(C(=O)/C=C/c2cc(F)c(F)c(F)c2)CC1)N1CCC(c2c[nH]c3ccccc23)CC1 (stereo not drawn) [Cpd 6, [4-(1H-indol-3-yl)-piperidin-1-yl]-{1-[(2E)-3-(3,4,5-trifluoro-phenyl)-acryloyl]-piperidin-4-yl}-acetic acid]	5 nM			decrease in swelling in the injected paws ([1]; ip, bid, 100 mg/kg, days 0-14): 40%; swelling of the contralateral paws ([1]; ip, bid, 100 mg/kg, days 0-14): insignificant swelling; decreased swelling in the injected paw ([2]; ip, bid, 100 mg/kg, days 12-16): 40%; inhibited contralateral paw swelling ([2]; ip, bid, 100 mg/kg, days 12-16): 51%; inhibited the development of arthritis (clinical disease score on day 35) [3]: greater than 90%; IC50 ([4]; THP-1, 3 h): 8 nM
O=C(O)[C@H](C1CCN(C(=O)/C=C/c2cc(F)c(F)c(F)c2)CC1)N1CCC(c2c[nH]c3ccccc23)CC1 [Cpd 13, (S)-{[4-(1H-indol-3-yl)-piperidin-1-yl]}-{1-[(2E)-3-(3,4,5-trifluoro-phenyl)-acryloyl]-piperidin-4-yl}-acetic acid]				Airway Hyperresponsiveness (whole body plethysmography reading) ([6]; Group 3: OVA-sensitized and OVA-challenged mice, methacholine challenge day 32, n=4): 1147±49; Eosinophil Infiltration (eosinophil cell count in bronchoalveolar lavage) ([6]; Group 3: OVA-sensitized and OVA-challenged mice, n=3): 0.2±0.1 ×10^5/ml; reduction in airway hyperresponsiveness compared to the non-treated mice [6, 8]: ~36%; reduction in airway inflammation compared to the non-treated mice [6, 8]: 75%
CC(=O)NCC(C1CCN(C(=O)/C=C/c2cccc(C)c2)CC1)N1CCC(c2c[nH]c3ccccc23)CC1 (stereo not drawn) [Cpd 216]	1800 nM	250 nM	700 nM	
CC(=O)OCC(C1CCN(C(=O)/C=C/c2ccc(Cl)c(Cl)c2)CC1)N1CCC(c2c[nH]c3ccccc23)CC1 (stereo not drawn) [Cpd 237, acetic acid 2-{1-[(2E)-3-(3,4-dichloro-phenyl)-acryloyl]-piperidin-4-yl}-2-[4-(1H-indol-3-yl)-piperidin-1-yl]-ethyl ester]	70 nM	215 nM	110 nM	
CC(=O)OCC(C1CCN(C(=O)Nc2ccc(Cl)c(Cl)c2)CC1)N1CCC(c2c[nH]c3ccccc23)CC1 (stereo not drawn) [Cpd 242, acetic acid 2-[1-(3,4-dichloro-phenylcarbamoyl)-piperidin-4-yl]-2-[4-(1H-indol-3-yl)-piperidin-1-yl]-ethyl ester]	40 nM	230 nM	270 nM	
O=C(/C=C/c1ccc([N+](=O)[O-])cc1)OCC(C1CCN(C(=O)/C=C/c2ccc([N+](=O)[O-])cc2)CC1)N1CCC(c2c[nH]c3ccccc23)CC1 (stereo not drawn) [Cpd 251, (2E)-3-(4-nitro-phenyl)-acrylic acid 2-[4-(1H-indol-3-yl)-piperidin-1-yl]-2-{1-[(2E)-3-(4-nitro-phenyl)-acryloyl]-piperidin-4-yl}-ethyl ester]	560 nM	390 nM	170 nM	
COc1ccc2c(c1)c(CC(=O)O)c(C)n2C(=O)c1ccc(Cl)cc1 [Indomethacin, indomethacin, reference compound]				inhibited contralateral paw swelling [1, 10]: 72%; inhibited swelling in the adjuvant-injected paws [1, 10]: 38%; inhibited adjuvant-injected paw swelling [2, 11]: 40%; inhibited contralateral paw swelling [2, 11]: 69%

The next lines start with results.

IC50 [5]	IC50 [7]	IC50 [4, 9]	SMILES	further results
180 nM	70 nM	190 nM	CC(=O)NCC(C1CCN(C(=O)/C=C/c2cc(F)cc(F)c2)CC1)N1CCC(c2c[nH]c3ccccc23)CC1 (stereo not drawn) [Cpd 214, N-{2-{1-[(2E)-3-(3,5-difluoro-phenyl)-acryloyl]-piperidin-4-yl}-2-[4-(1H-indol-3-yl)-piperidin-1-yl]-ethyl}-acetamide]	
20 nM	90 nM	460 nM	CC(=O)NCC(C1CCN(C(=O)/C=C/c2ccc(Cl)c(Cl)c2)CC1)N1CCC(c2c[nH]c3ccccc23)CC1 (stereo not drawn) [Cpd 215]	
2000 nM	210 nM	620 nM	CC(=O)NCC(C1CCN(C(=O)Nc2ccc(Cl)c(Cl)c2)CC1)N1CCC(c2c[nH]c3ccccc23)CC1 (stereo not drawn) [Cpd 217]	
20 nM	30 nM	8 nM	CC(=O)OCC(C1CCN(C(=O)/C=C/c2cc(F)cc(F)c2)CC1)N1CCC(c2c[nH]c3ccccc23)CC1 (stereo not drawn) [Cpd 235, acetic acid 2-{1-[(2E)-3-(3,5-difluoro-phenyl)-acryloyl]-piperidin-4-yl}-2-[4-(1H-indol-3-yl)-piperidin-1-yl]-ethyl ester]	
30 nM	20 nM	20 nM	CC(=O)OCC(C1CCN(C(=O)/C=C/c2cc(F)c(F)c(F)c2)CC1)N1CCC(c2c[nH]c3ccccc23)CC1 (stereo not drawn) [Cpd 236, acetic acid 2-[4-(1H-indol-3-yl)-piperidin-1-yl]-2-{1-[(2E)-3-(3,4,5-trifluoro-phenyl)-acryloyl]-piperidin-4-yl}-ethyl ester]	
30 nM	120 nM	20 nM	O=C(C=Cc1ccc(F)c(F)c1)N1CCC(C(CO)N2CCC(c3c[nH]c4ccc(F)cc34)CC2)CC1 (stereo not drawn) [Cpd 254, (2E)-3-(3,4-difluoro-phenyl)-1-(4-{1-[4-(5-fluoro-1H-indol-3-yl)-piperidin-1-yl]-2-hydroxy-ethyl}-piperidin-1-yl)-propenone]	
	2 nM	5 nM	O=C(/C=C/c1cc(F)cc(F)c1)N1CCC(C(CO)N2CCC(c3c[nH]c4ccc(O)cc34)CC2)CC1 (stereo not drawn) [Cpd 259, (2E)-3-(3,5-difluoro-phenyl)-1-(4-{2-hydroxy-1-[4-(5-hydroxy-1H-indol-3-yl)-piperidin-1-yl]-ethyl}-piperidin-1-yl)-propenone]	inhibition at 25 µM ([5]; THP-1, read-out: Inhibition of MCP-1 Induced Calcium Ion Influx, percent inhibition): 88%
